# Reference: patent US9289464B2, “Method for diagnosing and treating NIS-expressing carcinomas and metastases” (priority 2002, dated 2016)
# Experiments:
# [1] = test system: breast cancer cell line MCF-7; experiment: Iodide uptake assay (Na125I) in MCF-7 cells; type: cell-based, human
# Experimental: (§1) All the cell lines used herein were purchased from the Deutschen Sammlung von Mikroorganismen und Zelikulturen (DSMZ; Brunswick, Germany, DSMZ No.: MCF-7 (ACC 115)). MCF-7 cells were cultured in RPMI 1640 medium with 10% FCS (fetal calf serum) and addition of 1× nonessential amino acids, 0.01 mg/ml bovine insulin and 5% penicillin/streptomycin. The HeLa cells were cultured in RPMI 1640 medium. All the reagents for the cell culture were, unless indicated otherwise, purchased from Invitrogen, Karlsruhe, Germany. Cells were cultured in plates with 24 wells (24 Well Plates) for 24 h. The cells were then washed and subsequently the substances to be tested (ciglitazone, trans-retinoic acid with or without KClO4) were added in fresh medium. […] After the incubation, the cells were washed twice with ice-cold RPMI 1640 and lysed in 2% SDS-PAGE sample buffer (0.0625 M Tris-HCl, pH 6.8) with 1 U/μl Benzonase (Merck KgaA, Darmstadt, Germany). The ^125I uptake was measured in a gamma counter. An aliquot of each sample was employed to determine the protein concentration using the DC protein determination kit from Bio-Rad (Munich, Germany) in order thus to achieve standardization with different numbers of cells.
# NIS = target: T1, NIS (Homo sapiens, UniProt Q92911); experiment: Blocking experiments: iodide uptake in presence of KClO4; type: cell-based; settings: 30 mM KClO4; MCF-7 treated with tRA with or without CIG
# T1 construct: NIS gene expression is increased synergistically by treatment of CIG in combination with retinoic acid in the breast cancer cell line MCF-7; endogenous in cells; host or cells: MCF-7 (DSMZ ACC 115)
# T1 sequence (Q92911 1-643): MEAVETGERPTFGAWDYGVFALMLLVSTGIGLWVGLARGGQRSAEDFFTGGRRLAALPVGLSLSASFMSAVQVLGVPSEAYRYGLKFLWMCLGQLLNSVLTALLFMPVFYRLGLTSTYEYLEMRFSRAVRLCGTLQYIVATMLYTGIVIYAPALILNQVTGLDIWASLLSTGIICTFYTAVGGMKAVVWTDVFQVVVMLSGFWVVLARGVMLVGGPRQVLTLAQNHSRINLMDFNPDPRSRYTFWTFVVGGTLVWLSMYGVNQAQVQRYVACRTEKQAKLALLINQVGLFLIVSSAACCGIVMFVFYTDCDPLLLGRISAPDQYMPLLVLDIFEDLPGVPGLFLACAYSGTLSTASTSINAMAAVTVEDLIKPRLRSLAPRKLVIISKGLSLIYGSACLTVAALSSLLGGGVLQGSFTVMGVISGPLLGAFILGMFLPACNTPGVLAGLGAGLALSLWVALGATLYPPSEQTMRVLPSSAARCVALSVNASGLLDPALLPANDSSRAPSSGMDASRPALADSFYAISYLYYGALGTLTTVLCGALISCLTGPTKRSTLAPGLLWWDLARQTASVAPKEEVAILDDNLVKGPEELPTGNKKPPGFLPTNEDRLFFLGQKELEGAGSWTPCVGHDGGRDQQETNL
# Experimental: Cells were cultured in plates with 24 wells (24 Well Plates) for 24 h. The cells were then washed and subsequently the substances to be tested (ciglitazone, trans-retinoic acid with or without KClO4) were added in fresh medium. For the iodide uptake, the cells were first washed twice in prewarmed RPMI 1640 medium without FCS, and then incubated in 1 ml of RPMI 1640 without FCS which comprised 0.1 μCi/ml Na^125I (specific activity: 10 mCi/mmol, Amersham Biosciences, Freiburg, Germany) and 10 μM NaI/well for 1 h.
# (§2) After the incubation, the cells were washed twice with ice-cold RPMI 1640 and lysed in 2% SDS-PAGE sample buffer (0.0625 M Tris-HCl, pH 6.8) with 1 U/μl Benzonase (Merck KgaA, Darmstadt, Germany). The ^125I uptake was measured in a gamma counter. An aliquot of each sample was employed to determine the protein concentration using the DC protein determination kit from Bio-Rad (Munich, Germany) in order thus to achieve standardization with different numbers of cells.
# In order to test the specificity of NIS-mediated iodide uptake, the experiments described in the previous exemplary embodiment were also carried out in the presence of 30 mM KClO4, the strongest specific NIS inhibitor.
# [2] = test system: non-small-cell lung cancer cell line A549; settings: cited from earlier work
# [3] = test system: choriocarcinoma cell line JEG-3; settings: cited from earlier work
# [4] = test system: cervical carcinoma cell line HeLa; experiment: Iodide uptake assay (Na125I) in HeLa cells; type: cell-based; settings: 1 μM tRA with or without 5 μM CIG, 48 h
# Experimental: as §1
# HEK-293 cells = experiment: Iodide uptake assay in HEK-293 cells (analogous experiment); type: cell-based; settings: results not shown
# Experimental: as §2, with “Cells were cultured in plates with 24 wells (24 Well Plates) for 24 h. The cells were then washed and subsequently the substances to be tested (ciglitazone, trans-retinoic acid with or without KClO4) were added in fresh medium. […] After” for “After”
# [5] = test system: prostate cancer cell line LNCaP; settings: cited from earlier work
# NIS mRNA = NIS mRNA concentration in treated cells; type: cell-based; settings: cells treated with tRA
# [6] = test system: non-small-cell lung cancer cell line H460; settings: cited from earlier work
smiles,measurement,setting,value
"CC1(COc2ccc(CC3SC(=O)NC3=O)cc2)CCCCC1 (stereo not shown) [CIG, ciglitazone]",effect on iodide uptake (in words),[1]; 1 μM tRA and/or 5 μM CIG,no effect
[K+].[O-][Cl+3]([O-])([O-])[O-] [KClO4],effect on iodide uptake of breast cancer cells (NIS blocking),NIS,inhibited
"CC1=C(/C=C/C(C)=C/C=C/C(C)=C/C(=O)O)C(C)(C)CCC1 [tRA, trans-retinoic acid]",induction of iodide uptake,[2],does not induce iodide uptake
same,induction of iodide uptake,[3],does not induce iodide uptake
same,time at which maximum iodide uptake was reached,[1]; 1 μM tRA,48 h
same,induction of iodide uptake (in words),[4],no induction of iodide uptake
same,induction of iodide uptake (in words),HEK-293 cells,same results
same,induction of iodide uptake,[5],does not induce iodide uptake
same,concentration of NIS mRNA,NIS mRNA,distinctly increased
same,induction of iodide uptake,[6],does not induce iodide uptake
